Measured values from patent US11542273B2, “Amide compound having bet proteolysis-inducing action and medicinal application thereof” (MITSUBISHI TANABE PHARMA CORPORATION, priority 2018, dated 2023).

Key:
[1] = tested on: human acute myeloid leukemia MV-4-11 cell transplanted mouse; experiment: Antitumor effect in human acute myeloid leukemia MV-4-11 cell transplanted mouse; type: in vivo; conditions: MV4-11, iv, 360 h, read-out: tumor growth inhibitory rate
Procedure: The in vivo antitumor effect of the compound of the present invention was studied using human acute myeloid leukemia MV-4-11 cell transplanted mouse. MV-4-11 cells were subcutaneously transplanted into the inguinal region of male, 6-week-old BALB/c nude mouse (5×10^6 cells/mouse). The compound of the present invention was administered into the tail vein on days 1, 5, 9, 13 from the time point when the assumed tumor volume determined from 1/2ab^2 (a is major axis and b is minor axis of tumor) reached about 100 mm^3 (day 1). The control group was administered with a solvent, 10% hydroxypropyl-β-cyclodextrin solution. On day 15, the tumor was isolated, the weight was measured, and the tumor growth inhibitory rate IR (%) was calculated by the following formula. tumor growth inhibitory rate IR (%)=(1−tumor weight of administration group/tumor weight of nonadministration control group)×100

[2] = tested on: human uterine sarcoma MES-SA cell; experiment: Cytotoxic action on cancer cells (WST-8, 96 hr); type: cell-based; conditions: 96 hr culture
Summary of the method: (§1)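 Cells in 10% FBS/RPMI1640 were seeded, cultured overnight at 37 °C with 5% CO2, then exposed to compound for 96 hr. Viable cells were measured with WST-8 against compound-free controls. IC50 was interpolated linearly between the two concentrations bracketing 50% survival.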

[3] = tested on: human T-cell leukemia Jurkat cells; experiment: Cytotoxic action on cancer cells (WST-8, 96 hr); type: cell-based; conditions: 96 hr culture
Summary of the method: as §1

[4] = tested on: human castration-resistant prostate cancer PC-3 cell; experiment: Cytotoxic action on cancer cells (WST-8, 96 hr); type: cell-based; conditions: PC-3 cells (printed P0-3 in table), 96 hr culture
Summary of the method: as §1

[5] = tested on: human multiple myeloma MM.1S cell; experiment: Cytotoxic action on cancer cells (WST-8, 96 hr); type: cell-based; conditions: MM1.S, MM.1S cells, 96 hr culture
Summary of the method: as §1

[6] = tested on: human pancreatic cancer AsPC-1 cell; experiment: Cytotoxic action on cancer cells (WST-8, 96 hr); type: cell-based; conditions: ASPC1, AsPC-1 cells, 96 hr culture
Summary of the method: as §1

[7] = tested on: human liver cancer Hep G2 cell; experiment: Cytotoxic action on cancer cells (WST-8, 96 hr); type: cell-based; conditions: HepG2, 96 hr culture
Summary of the method: as §1

[8] = tested on: human acute myeloid leukemia MV-4-11 cell; experiment: Cytotoxic action on cancer cells (WST-8, 96 hr); type: cell-based; conditions: MV4-11, MV-4-11 cells, 96 hr culture
Summary of the method: as §1

[9] = tested on: human non-small cell lung cancer NCI-H1975 cell; experiment: Cytotoxic action on cancer cells (WST-8, 96 hr); type: cell-based; conditions: 96 hr culture
Summary of the method: as §1

[10] = tested on: human bladder cancer 5637 cell; experiment: Cytotoxic action on cancer cells (WST-8, 96 hr); type: cell-based; conditions: 5637 cells, 96 hr culture
Summary of the method: as §1

[11] = tested on: human chronic myeloid leukemia K562 cell; experiment: Cytotoxic action on cancer cells (WST-8, 96 hr); type: cell-based; conditions: 96 hr culture
Summary of the method: as §1

[12] = tested on: human glioma U-87 MG cell; experiment: Cytotoxic action on cancer cells (WST-8, 96 hr); type: cell-based; conditions: U-87 MG cells, 96 hr culture
Summary of the method: as §1

[13] = tested on: human ovarian cancer A2780 cell; experiment: Cytotoxic action on cancer cells (WST-8, 96 hr); type: cell-based; conditions: 96 hr culture
Summary of the method: as §1

[14] = tested on: human large cell lung cancer NCI-H460 cell; experiment: Cytotoxic action on cancer cells (WST-8, 96 hr); type: cell-based; conditions: 96 hr culture
Summary of the method: as §1

[15] = tested on: human gastric cancer SNU-16 cell; experiment: Cytotoxic action on cancer cells (WST-8, 96 hr); type: cell-based; conditions: SNU-16 cells, 96 hr culture
Summary of the method: as §1

[16] = tested on: human breast cancer ZR-75-1 cell; experiment: Cytotoxic action on cancer cells (WST-8, 96 hr); type: cell-based; conditions: ZR-75-1 cells, 96 hr culture
Summary of the method: as §1

[17] = tested on: human small cell lung cancer NCI-H82 cell; experiment: Cytotoxic action on cancer cells (WST-8, 96 hr); type: cell-based; conditions: 96 hr culture
Summary of the method: as §1

[18] = tested on: human Burkitt lymphoma Raji cell; experiment: Cytotoxic action on cancer cells (WST-8, 96 hr); type: cell-based; conditions: 96 hr culture
Summary of the method: as §1

[19] = tested on: human colorectal cancer HCT116 cell; experiment: Cytotoxic action on cancer cells (WST-8, 96 hr); type: cell-based; conditions: HCT-116, 96 hr culture
Summary of the method: as §1

[20] = tested on: human triple negative breast cancer MDA-MB-231 cell; experiment: Cytotoxic action on cancer cells (WST-8, 96 hr); type: cell-based; conditions: MDA-MB-231 cells, 96 hr culture
Summary of the method: as §1

[21] = tested on: human diffuse large B-cell lymphoma SU-DHL-6 cell; experiment: Cytotoxic action on cancer cells (WST-8, 96 hr); type: cell-based; conditions: SU-DHL-6 cells, 96 hr culture
Summary of the method: as §1

[22] = tested on: human prostate cancer LNCaP cells; experiment: Cytotoxic action on cancer cells (WST-8, 96 hr); type: cell-based; conditions: Homo sapiens, LNCaP, 96 h, read-out: LNCaP cytotoxic activity: IC50
Summary of the method: as §1

Question: What does the source list for `COC(=O)C[C@@H]1N=C(c2ccc(-c3ccc(OCC(=O)N[C@H](C(=O)N4C[C@H](O)C[C@H]4C(=O)N[C@@H](C)c4ccc(-c5scnc5C)cc4)C(C)(C)C)c(C#N)c3)cc2)c2c(sc(C)c2C)-n2c(C)nnc21` [Example 9, methyl [(6S)-4-{3′-cyano-4′-[2-({(2S)-1-[(2S,4R)-4-hydroxy-2-({(1S)-1-[4-(4-methyl-1,3-thiazol-5-yl)phenyl]ethyl}carbamoyl)pyrrolidin-1-yl]-3,3-dimethyl-1-oxobutan-2-yl}amino)-2-oxoethoxy][1,1′-biphenyl]-4-yl}-2,3,9-trimethyl-6H-thieno[3,2-f][1,2,4]triazolo[4,3-a][1,4]diazepin-6-yl]acetate]?
Answer: inhibition in vivo at 1 mg/kg [1]: 98.5%; inhibition in vivo at 5 mg/kg [1]: 98.4%; IC50 [2]: 2.6 nM; IC50 [3]: 1.2 nM; IC50 [4]: 1 nM; IC50 [5]: 0.14 nM; IC50 [6]: 30 nM; IC50 [7]: 33 nM; IC50 [8]: 0.015 nM; IC50 [9]: 3.7 nM; IC50 [10]: 0.45 nM; IC50 [11]: 2.2 nM; IC50 [12]: 9.1 nM; IC50 [13]: 0.16 nM; IC50 [14]: 24 nM; IC50 [15]: 3 nM; IC50 [16]: 0.96 nM; IC50 [17]: 15 nM; IC50 [18]: 1.9 nM; IC50 [19]: 4.7 nM; IC50 [20]: 5.7 nM; IC50 [21]: 0.57 nM; IC50 [22]: 0.16 nM

Question: Which inhibition in vivo at 1 mg/kg [1] does the source give for `COC(=O)C[C@@H]1N=C(c2ccc(-c3ccc(C(=O)N[C@H](C(=O)N4C[C@H](O)C[C@H]4C(=O)N[C@@H](C)c4ccc(-c5scnc5C)cc4)C(C)(C)C)c(Cl)c3)cc2)c2c(sc(C)c2C)-n2c(C)nnc21` [Example 157, methyl {(6S)-4-[3′-chloro-4′-({(2S)-1-[(2S,4R)-4-hydroxy-2-({(1S)-1-[4-(4-methyl-1,3-thiazol-5-yl)phenyl]ethyl}carbamoyl)pyrrolidin-1-yl]-3,3-dimethyl-1-oxobutan-2-yl}carbamoyl)[1,1′-biphenyl]-4-yl]-2,3,9-trimethyl-6H-thieno[3,2-f][1,2,4]triazolo[4,3-a][1,4]diazepin-6-yl}acetate] here?
Answer: The inhibition in vivo at 1 mg/kg was 95.5%.

Question: What about the inhibition in vivo at 3 mg/kg [1] of the same compound?
Answer: The inhibition in vivo at 3 mg/kg was 98.2%.

Question: And the IC50 [2]?
Answer: Its IC50 is 1.7 nM.

Question: And the IC50 [3]?
Answer: Its IC50 is 0.46 nM.

Question: What about the IC50 [4] of the same compound?
Answer: The IC50 was 0.41 nM.

Question: What about the IC50 [5] of the same compound?
Answer: Its IC50 is 0.081 nM.

Question: And the IC50 [6]?
Answer: Its IC50 is 23 nM.

Question: And the IC50 [7]?
Answer: Its IC50 is 12 nM.

Question: What about the IC50 [8] of the same compound?
Answer: The IC50 was 0.029 nM.

Question: What about the IC50 [9] of the same compound?
Answer: Its IC50 is 2.2 nM.

Question: What about the IC50 [10] of the same compound?
Answer: Its IC50 is 0.33 nM.

Question: What about the IC50 [11] of the same compound?
Answer: The IC50 was 1.2 nM.

Question: What about the IC50 [12] of the same compound?
Answer: Its IC50 is 18 nM.

Question: What about the IC50 [13] of the same compound?
Answer: Its IC50 is 0.15 nM.

Question: What about the IC50 [14] of the same compound?
Answer: Its IC50 is 23 nM.

Question: And the IC50 [15]?
Answer: The IC50 was 1.2 nM.

Question: What about the IC50 [16] of the same compound?
Answer: Its IC50 is 2 nM.

Question: And the IC50 [17]?
Answer: Its IC50 is 4.5 nM.

Question: And the IC50 [18]?
Answer: The IC50 was 0.59 nM.

Question: And the IC50 [19]?
Answer: The IC50 was 4.5 nM.

Question: And the IC50 [20]?
Answer: The IC50 was 1.8 nM.

Question: What about the IC50 [21] of the same compound?
Answer: The IC50 was 0.39 nM.

Question: And the IC50 [22]?
Answer: The IC50 was 0.4 nM.

Question: `COC(=O)C[C@@H]1N=C(c2ccc(N3CC[C@@H](Oc4ccc5oc(C(=O)N[C@H](C(=O)N6C[C@H](O)C[C@H]6C(=O)N[C@@H](C)c6ccc(-c7scnc7C)cc6)C(C)(C)C)cc5c4)C3)cc2)c2c(sc(C)c2C)-n2c(C)nnc21` [Example 142, methyl [(6S)-4-{4-[(3R)-3-{[2-({(2S)-1-[(2S,4R)-4-hydroxy-2-({(1S)-1-[4-(4-methyl-1,3-thiazol-5-yl)phenyl]ethyl}carbamoyl)pyrrolidin-1-yl]-3,3-dimethyl-1-oxobutan-2-yl}carbamoyl)-1-benzofuran-5-yl]oxy}pyrrolidin-1-yl]phenyl}-2,3,9-trimethyl-6H-thieno[3,2-f][1,2,4]triazolo[4,3-a][1,4]diazepin-6-yl]acetate] was tested. Which inhibition in vivo at 3 mg/kg [1] did it give?
Answer: Its inhibition in vivo at 3 mg/kg is 97.4%.

Question: What about the IC50 [2] of the same compound?
Answer: The IC50 was 1.6 nM.

Question: What about the IC50 [3] of the same compound?
Answer: The IC50 was 0.36 nM.

Question: And the IC50 [4]?
Answer: Its IC50 is 0.34 nM.

Question: And the IC50 [5]?
Answer: Its IC50 is 0.23 nM.

Question: And the IC50 [6]?
Answer: The IC50 was 5.7 nM.

Question: What about the IC50 [7] of the same compound?
Answer: Its IC50 is 7.4 nM.

Question: What about the IC50 [8] of the same compound?
Answer: Its IC50 is 0.041 nM.

Question: And the IC50 [9]?
Answer: Its IC50 is 1.8 nM.

Question: And the IC50 [10]?
Answer: The IC50 was 0.34 nM.

Question: And the IC50 [11]?
Answer: Its IC50 is 2.1 nM.

Question: And the IC50 [12]?
Answer: Its IC50 is 4 nM.

Question: What about the IC50 [13] of the same compound?
Answer: Its IC50 is 0.27 nM.

Question: What about the IC50 [14] of the same compound?
Answer: The IC50 was 11 nM.

Question: What about the IC50 [15] of the same compound?
Answer: Its IC50 is 0.55 nM.

Question: What about the IC50 [16] of the same compound?
Answer: The IC50 was 0.49 nM.

Question: What about the IC50 [17] of the same compound?
Answer: The IC50 was 5.9 nM.

Question: What about the IC50 [18] of the same compound?
Answer: Its IC50 is 0.71 nM.

Question: And the IC50 [19]?
Answer: The IC50 was 3.9 nM.

Question: And the IC50 [20]?
Answer: Its IC50 is 0.98 nM.

Question: What about the IC50 [21] of the same compound?
Answer: Its IC50 is 0.93 nM.

Question: And the IC50 [22]?
Answer: The IC50 was 0.3 nM.
